Square brackets hold non-standard residues; d marks the D form. Peptide text beside a SMILES is read from it. NMeF = CN[C@@H](Cc1ccccc1)C(=O)O
Legend:
[1] = tested on: male mice of Kunming strain; experiment: Analgesic tolerance test (photothermal tail flick); format: in vivo, mouse
Procedure: The mice were injected with the drug in the lateral ventricle of the mice for six consecutive days or in the subcutaneous of the mice for eight consecutive days, and their analgesic tolerance were detected by photothermal tail flick method, and the pharmacological activity of the compounds of the present invention in analgesic tolerance was further explored.
In male mice of Kunming strain, the drug was injected continuously in the lateral ventricle for six days, once a day, and the effect of continuous injection of drugs on the pain sensation was detected by a photothermal tail flick instrument. The ambient temperature is controlled at 22±1° C., and the experimental animals are free to eat and drink. The test drug was injected into the lateral ventricle of the mouse for 6 consecutive days, 4 μl per injection. The basic tail flick incubation period (3-5 seconds) was measured before the first day of drug injection, and those mice that were too sensitive or dull were discarded. The tail flick incubation period of 5, 10, 15, 20, 30 min after administration on the first and sixth days was recorded in the experiment. To prevent scald on the tail of the mouse, the maximum tail flick incubation period was set as 10 seconds,
In addition, we further studied the tolerance of subcutaneous administration of compound 9 and morphine in the photothermal tail flick test. The ambient temperature is controlled at 22±1° C., and the experimental animals are free to eat and drink. First, the basic tail flick incubation period (3-5 seconds) of the mice was measured before administration, and then compound 9 or morphine was administered subcutaneously for eight consecutive days. The tail flick incubation period of 10, 15 and 20 minutes after daily administration were recorded. To prevent scald on the tail of the mouse, the maximum tail flick incubation period was set as 10 seconds.
The experimental data is expressed by MPE (maximum possible effect), MPE (%)=100×[(pain threshold after administration−basal pain threshold)/(10 seconds−basal pain threshold)]. The analgesic tolerance of the drug was compared using the MPE value at the time of maximum analgesic effect of the drug. MPE data was expressed as mean±standard error (Means±S.E.M.). The difference in the analgesic effect of continuous administration in the lateral ventricle of the mice for six days was statistically analyzed by the paired T test, and the difference in the analgesic effect of subcutaneous continuous administration for eight days was analyzed by One-way analysis of variance (one-way ANOVA's Tukey HSD test) for statistics, and ***P<0.001 indicates a significant difference from the analgesic effect of the drug injected on the first day.

[2] = tested on: neuralgia induced by chronic compression of the sciatic nerve in mice; experiment: CCI neuralgia model (thermal and mechanical pain); format: in vivo, mouse
Procedure: The chronic compression model of the sciatic nerve (CCI) was mainly used for the mouse neuralgia. The detection method uses thermal tingling instrument and electronic Von Frey tenderness instrument to simultaneously detect thermal pain and mechanical pain. Firstly, the basic pain threshold of thermal pain and mechanical pain in normal mice were determined respectively. The mice were then anesthetized with sodium pentobarbital (i.p., 80 mg/kg mouse body weight) and the mice were fixed in the prone position. The right sciatic nerve was exposed and 3 mild ligation rings were made around the sciatic nerve using a 4-0 chromic catgut, 1 mm intervals. The ligation intensity is preferably a slight tremor in the right hind leg. On the 10th day after surgery, the thermal pain sensitivity value of the right hind paw of the mouse was measured, and then compound 9 was intrathecally or subcutaneously administered, and the thermal pain threshold at different time points after administration were recorded. On the 11th day after surgery, the mechanical pain sensitivity value of the right hind paw of the mouse was measured, and then Compound 9 was intrathecally or subcutaneously administered, and the mechanical pain threshold at different time points after administration were recorded.
(§1) The experimental data were expressed as mean±standard error (Means±S.E.M.), and the data for differences between groups treated with different drug concentrations were analyzed by one-way ANOVA (Bonferroni test in one-way ANOVA) for statistics and analysis, **P<0.01, ***P<0.001 represents that there was a significant difference between the pain threshold value of the drug-treated group and that of the saline group.
First, the maximum analgesic effect (MPE) was calculated, MPE (%)=100×[(pain threshold after administration−pain sensitivity value of the hind paw in surgical side)/(basic pain threshold−pain sensitivity value of the hind paw in surgical side)].

[3] = tested on: CFA-induced inflammatory pain in mouse; experiment: Analgesic tolerance and cross-tolerance in CFA-induced inflammatory pain; format: in vivo
Procedure: CFA-induced inflammatory pain in mouse was detected by an electronic Von Frey tenderness instrument, and the basal pain threshold of normal mice was Firstly determined. Then […] of CFA solution was injected subcutaneously into the mouse paw. After 4 days, the mechanical pain sensitivity value of the injected paw of the mouse was measured. And then compound 9 or morphine was injected for 6 consecutive days (lateral ventricle) or 7 consecutive days (subcutaneously), and the mice in morphine group were given compound 9 on day 7 (lateral ventricle) or day 8 (subcutaneous). The mechanical pain thresholds at different time points after administration were recorded.
The experimental data were expressed as mean± standard error (Means±S.E.M.). Data for differences between groups treated with the same drug were analyzed by one-way ANOVA (Tukey HSD test of one-way ANOVA) for statistics and analysis, *P<0.05. **P<0.005, ***P<0.001 indicates a significant difference between the mechanical pain threshold of the drug-treated group and the pain threshold after the first day of administration.

[4] = tested on: movement activity of mice; experiment: Movement activity, open field experiment; format: in vivo, mouse; details: subcutaneous 10 mg/kg
Procedure: The movement activity of the mice was tested by open field experiments. The experimental device is consisted of a 50×50×50 cm topless black plexiglass box and a movement monitoring system. The experiment was carried out in a soundproof environment with an indoor temperature being controlled at 22±1° C. After the experiment was started, the mice were first recorded for free movement within 30 minutes, and then compound 9 or morphine was administered subcutaneously, the movement of the mice was detected for another 150 minutes. Before the experiment for each mouse was started, the whole box was wiped with alcohol as a whole to exclude the residual odor of the previous mouse from affecting the accuracy of the data.
as §1, with “drugs” for “drug concentrations”, “analysis,” for “analysis, **P<0.01,”, “movement activity” for “pain threshold value”

[5] = tested on: movement coordination of mice; experiment: Movement coordination, RotaRod; format: in vivo, mouse; details: subcutaneous 10 mg/kg
Procedure: The movement coordination of the mice was detected by a ZB-200 RotaRod System. The mice were first trained for two days at a rotational speed of 16 r/min and continuously trained three times a day. The maximum movement time for each training was set to 300 s, and mice with movement time less than 180 s were excluded after the training. On day 3 of the experiment, mice were tested for movement coordination at 10, 20, 30 and 40 min after subcutaneous administration of compound 9.
The experimental data were expressed as mean±standard error (Means±S.E.M.), and the differences between drug treatment groups were analyzed by one-way ANOVA (Dunnett test in one-way ANOVA) for data statistics and analysis.

## C[C@@H](NC(=O)[C@@H](N)Cc1ccc(O)cc1)C(=O)NCC(=O)N(C)[C@@H](Cc1ccccc1)C(=O)NCC(=O)N1CCC[C@H]1C(=O)N[C@@H](CCC(N)=O)C(=O)N[C@@H](CCCNC(=N)N)C(=O)N[C@@H](Cc1ccccc1)C(N)=O [Compound 9, Tyr-D-Ala-Gly-NMe-Phe-Gly-Pro-Gln-Arg-Phe-NH2] (H-Y[dA]G[NMeF]GPQRF-NH2)
[1]; eight consecutive days subcutaneous, 10 mg/kg
  analgesic tolerance: not significantly different from that of the first day
[1]; tail flick, subcutaneous 10 mg/kg
  analgesia effect compared with morphine: equivalent to that of an equal dose of morphine
[2]; intrathecal
  analgesic ED50 value, thermal hyperalgesia: 1.74 (1.38-2.20) pmol
[2]; subcutaneous
  analgesic ED50 value, mechanical hyperalgesia: 3.51 (3.28-3.74) mg/kg
  analgesic ED50 value, thermal hyperalgesia: 3.12 (2.77-3.51) mg/kg
[3]; mechanical pain, lateral ventricle 6 days or subcutaneous 7 days
  analgesic tolerance on continuous injection: not significantly different from that of the first day
[3]; morphine-tolerant mice given compound 9 on day 7 (lateral ventricle) or day 8 (subcutaneous)
  cross-tolerance between compound 9 and morphine: no cross-tolerance
[4]
  total distance of movement: 71.39 m
[5]
  effect on movement coordination: did not significantly affect movement coordination
